Reference: US20240083921A1, “BORATE DERIVATIVE AND USES THEREOF” (Reistone Biopharma Company Limited, priority 2020, published 2024)
Where two headings read alike, the source gives them in different places.

Columns and labels:
[1] = system: TNF-α release from peripheral blood mononuclear cells (PBMCs); assay: Inhibition of pro-inflammatory cytokine (TNF-α) release from LPS-stimulated PBMCs, ELISA; type: cell-based; details: LPS 0.1 ng/ml, 24 hours
Excerpt: Test Example 2 Inhibitory Effect of Compounds on the Release of Pro-Inflammatory Cytokines from Peripheral Blood Mononuclear Cells (PBMCs)
Frozen PBMCs were thawed and detected by Trypan blue staining for cell viability and number. The thawed PBMCs were washed with RPMI1640 complete medium (RPMI1640+10% FBS+1% PS) and centrifuged, and the supernatant was discarded. The PBMCs were resuspended with RPMI1640 complete medium and the cell density was adjusted to 2×10^6 cells/mL. 2×10^5 PBMC cells were plated in a 96-well cell culture plate, and the compounds to be tested were added at different concentrations, in a 1:5 serial dilution of 9 concentrations starting from a maximum compound concentration of 100 μM, each in duplicate. LPS was added at a final concentration of 0.1 ng/ml, making a total volume of 200 μL. For the negative and positive controls, only LPS and DMSO were added to the negative control well, while 1 μg/mL of dexamethasone was added to the positive control well in addition to cells and LPS as. The cells were incubated in an incubator at 37° C. for 24 hours. After completion of the incubation, 100 μL of cell culture supernatant was collected and detected by ELISA for the TNF-α level. 100 μL of CellTiter-Glo was added to the remaining cells in each well to detect the cell viability level. The IC50 value of inhibition of TNF-α release by the compounds was calculated.
The in vitro inhibition of pro-inflammatory cytokine release of PBMCs by the Examples of the present disclosure was determined by the above test, and the determined IC50 value was shown in Table 2.

PDE4B1 enzyme = PDE4B1 enzyme (Homo sapiens (Human), UniProt Q07343); assay: In vitro PDE4B enzyme activity detection test (IMAP FP, FAM-cAMP substrate); type: biochemical; details: PDE4B1 0.04 nM, FAM-cAMP 0.1 μM, 25° C. 30 min
Chain of PDE4B1 enzyme (Q07343 whole entry): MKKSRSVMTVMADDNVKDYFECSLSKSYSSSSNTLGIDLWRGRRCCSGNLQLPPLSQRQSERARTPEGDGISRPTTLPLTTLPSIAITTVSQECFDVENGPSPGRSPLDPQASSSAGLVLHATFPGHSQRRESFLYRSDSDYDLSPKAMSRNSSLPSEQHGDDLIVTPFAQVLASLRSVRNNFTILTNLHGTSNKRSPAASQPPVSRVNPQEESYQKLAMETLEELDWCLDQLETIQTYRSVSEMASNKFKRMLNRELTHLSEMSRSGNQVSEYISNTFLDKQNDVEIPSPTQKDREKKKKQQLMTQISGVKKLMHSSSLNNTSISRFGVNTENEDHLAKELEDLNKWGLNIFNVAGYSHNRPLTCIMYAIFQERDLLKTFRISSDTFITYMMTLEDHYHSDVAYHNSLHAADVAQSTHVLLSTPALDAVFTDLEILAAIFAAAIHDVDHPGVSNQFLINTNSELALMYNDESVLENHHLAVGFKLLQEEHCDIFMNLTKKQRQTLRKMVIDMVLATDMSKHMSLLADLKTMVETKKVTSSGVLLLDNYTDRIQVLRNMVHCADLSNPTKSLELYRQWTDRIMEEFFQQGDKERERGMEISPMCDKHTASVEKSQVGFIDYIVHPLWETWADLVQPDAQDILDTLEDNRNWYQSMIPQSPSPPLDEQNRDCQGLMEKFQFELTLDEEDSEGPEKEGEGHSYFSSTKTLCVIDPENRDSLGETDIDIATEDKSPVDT
Description: Test Example 1 In vitro PDE4B Enzyme Activity Detection Test
1. Experimental Materials
First, a stock solution of the compound at a concentration of 10 mM was prepared in a test tube with 90% DMSO (10% water), and it was used to prepare a series of dilutions with a dilution factor of 1:5 and final concentrations starting from 100 μM to as low as 0.05 nM.
0.2 μl of the compound solution was transferred into a 384-well reaction plate, and 0.2 μl of 100% DMSO was transferred into both the negative and positive controls. Then, 10 μl of 2×PDE4B1 enzyme solution (making a final concentration of 0.04 nM) was added to each well, and 10 μl of 1×reaction buffer instead of the enzyme solution was added to the zero enzyme activity control wells. The plate was centrifuged at 1,000 rpm for 1 min and incubated at room temperature for 15 min. Next, 10 μl of 2×FAM-cAMP substrate solution (making a substrate final concentration of 0.1 μM) was added to each well of the 384-well reaction plate. The plate was centrifuged at 1,000 rpm for 1 min and the reaction was carried out at 25° C. for 30 min. After completion of the reaction, 60 μl of reaction stop solution was added to each well of the 384-well reaction plate to terminate the reaction, and the plate was incubated with shaking at 600 rpm on a shaker at room temperature in the dark for 60 min.
After the incubation, the RLU data were read and the inhibition rate was calculated. The IC50 value was calculated from the concentration-inhibition fitted curve, wherein the maximum value refers to the reading of the DMSO control and the minimum value refers to the reading of the zero enzyme activity control.
The in vitro inhibition of PDE4B1 enzyme activity by the Examples of the present disclosure was determined by the above test, and the measured IC50 value was shown in Table 1.

[2] = system: IL-23 secretion of DC cells differentiated from human mononuclear cells; assay: In vitro inhibition of IL-23 secretion of DC cells differentiated from human mononuclear cells, Zymosan stimulation, ELISA; type: cell-based; details: Table 3: inhibition of IL-23 secretion of DC cells, Zymosan 200 μg/ml, 24 hours
Description: Test Example 3 Experiment of in vitro Inhibition of IL-23 Secretion of DC Cells Differentiated from Human Mononuclear Cells by the Compounds
Day 0: Mononuclear cells were isolated from fresh human peripheral blood and purified and then resuspended in RPMI-1640 complete medium (RPMI-1640+10% FBS+1% P.S.+55 μM 2-Mercaptoethanol). When differentiating into DC cells, IL-4 at a concentration of 50 ng/ml and GM-CSF at 100 ng/ml were added to the medium. The cells were cultured at a density of 1×10^6 cells/mL in a culture dish with a diameter of 100 mm for differentiation in an incubator at 37° C. with a carbon dioxide concentration of 5%. Day 3: Half the volume of RPMI complete medium was replaced with fresh RPMI complete medium while maintaining the concentration of IL-4 at 50 ng/ml and GM-CSF at 100 ng/ml. Day 6: Non-adherent cells (DC cells) in the culture dish were collected and washed with PBS. The washed DC cells were resuspended with RPMI complete medium at a density of 1×10^6 cells/mL. Then. 1×10^5 DC cells were added to each well of the 96-well cell culture plate and pre-incubated with different dilutions of the compounds to be tested (or DMSO blank negative control at equivalent concentration) for 1 hour, followed by addition of 200 μg/ml of the TLR2 agonist Zymosan to stimulate the DC cells for 24 hours. Day 7: After 24 hours of Zymosan stimulation of DC cells. the supernatant in each well of the 96-well plate was collected and detected by ELISA for the concentration of IL-23.
The inhibition of IL-23 secretion of DC cells differentiated from human mononuclear cells by the compounds of the present disclosure was determined by the above test, and the determined IC50 value was shown in Table 3.

[3] = system: imiquimod-induced psoriasis mouse model; assay: Suppression of imiquimod-induced psoriasis in mice (topical ointment); type: in vivo, Balb/c female mice; details: for Ratio of spleen weight to body weight Mean / Total clinical score Mean / Erythema score Mean / Scale score Mean / Thickness score Mean: IMQ mice; for Ratio of spleen weight to body weight Mean: Day 7, percentage of spleen to body weight; for Total clinical score Mean: endpoint; for Erythema score Mean / Scale score Mean / Thickness score Mean: scale 0-4; for clinical score at the endpoint (statement): each dose of Compound 12-1; for clinical score at the endpoint (statement) / effect on the ratio of spleen weight to body weight (statement): versus model; for effect on the ratio of spleen weight to body weight (statement): three dose groups of Compound 12-1
Excerpt: Test Example 4 Experiment of Suppression of Imiquimod-Induced Psoriasis
An appropriate amount of Compound 12-1 was formulated into an ointment with the following components: 0.1% of Compound 12-1, 9% of hexanediol, 78.8% of white petrolatum, 5% of paraffin, 7% of glyceryl mono- and distearate, and 0.1% of […], which were mechanically stirred until an ointment was formed.
1) Model Establishment and Drug Administration
7-Week-old Balb/c female mice were used and the hair on their back in an area of 2 cm×3 cm was shaved the day before the experiment. On Days 1-7 of the experiment, the test compounds were applied on the skin for 6 hours, and then imiquimod (IMQ) ointment (Aldara (5%)) was continuously applied to the back skin of mice for 7 days, so as to establish a mouse model of psoriasis, while the control group was given the same dose of petrolatum ointment. On Days 3, 5 and 7, the severity of skin inflammation was assessed, including measurement of skin thickness, crusting and erythema, scored on a 5-point scale (0-4) respectively. The total score was used to assess the severity of skin inflammation. On Day 7 of the experiment, the spleen was collected and weighed, and the percentage of spleen to body weight was calculated to assess the immunosuppressive effect of the drug.
Normal control group, model control group, low, medium and high dose groups of Compound 12-1 (0.01%, 0.03% and 0.1%), 0.03% Compound 1-1 group, and 0.03% reference Compound A group were set up in this experiment.
The total score of the degree of skin inflammation was the clinical score, the indicators of which were relatively subjective, and higher score indicated more serious disease. The degree of increase in skin thickness was an objective assessment indicator, and more increase in thickness indicated more serious disease. The ratio of spleen weight to body weight was an objective assessment indicator, and smaller ratio of spleen weight to body weight indicated stronger immunosuppressive effect of the drug.

[4] = Compound A 0.03%, Compound 1-1 0.03%

## COc1ccc(-c2cncc([C@H]3COB(O)C3)c2)c2c1OC1(CCCC1)C2 [Compound 1-2]
[1]; read-out: PBMC IC50
  IC50: 3.26 nM
PDE4B1 enzyme
  IC50: 0.4 nM

## COc1ccc(-c2cncc(C3COB(O)C3)c2)c2c1OC(C)(C)CC2 (stereo not drawn) [Compound 9]
[1]; PBMC
  IC50: 0.3 nM
PDE4B1 enzyme
  IC50: 0.25 nM

## COc1ccc(-c2cncc(C3COB(O)C3)c2)c2c1OC(C)(C)C2 (stereo not drawn) [Compound 6]
[1]; PBMC
  IC50: 1.56 nM
PDE4B1 enzyme
  IC50: 0.41 nM

## COc1ccc(-c2cncc([C@@H]3COB(O)C3)c2)c2c1OC1(CCCC1)C2 [Compound 1-1]
[2]; read-out: PBMC IC50
  IC50: 0.12 nM
[1]; read-out: PBMC IC50
  IC50: 0.32 nM
[3]; 0.03% applied on skin
  Ratio of spleen weight to body weight Mean: 0.63
  Total clinical score Mean: 8.5
  Erythema score Mean: 3.63
  Scale score Mean: 2.75
  Thickness score Mean: 2.13
[3]; Compound 1-1 0.03%, each dose group of Compound 12-1
  single item scores (statement): mainly improve scab and reduce skin thickness
[3]; [4]
  clinical score at the endpoint (statement): significantly reduce the clinical score
  effect on the ratio of spleen weight to body weight (statement): significantly reduce the ratio of spleen weight to body weight
[3]; same dose (0.03%)
  effect on the ratio of spleen weight to body weight compared with Compound A: significantly different from that of Compound A
PDE4B1 enzyme
  IC50: 0.11 nM

## O=C(Nc1c(Cl)cncc1Cl)c1ccc(OC(F)F)c(OCC2CC2)c1 [Roflumilast, reference compound]
[2]; Homo sapiens, PBMC
  IC50: 12.9 nM

## COc1ccc(-c2cncc(C3COB(O)C3)c2)c2c1OC(C)(C)CO2 (stereo not drawn) [Compound 8]
[1]; PBMC
  IC50: 0.74 nM

## COc1ccc(-c2cccc(C3COB(O)C3)c2)c2c1OC1(CCCC1)C2 (stereo not drawn) [Compound 3]
PDE4B1 enzyme
  IC50: 1.1 nM

## COc1ccc(-c2cncc(C3COB(O)C3)n2)c2c1OC1(CCCC1)C2 (stereo not drawn) [Compound 4]
[1]; PBMC
  IC50: 2.15 nM
PDE4B1 enzyme
  IC50: 0.083 nM

## COc1ccc(-c2cncc(C3COB(O)C3)c2)c2cc(C(F)(F)F)nn12 (stereo not drawn) [Compound 7]
[1]; PBMC
  IC50: 0.36 nM
PDE4B1 enzyme
  IC50: 0.055 nM

## COc1ccc(-c2cncc(C3COB(O)C3)c2)c2c1OC(C)C2 (stereo not drawn) [Compound 2]
PDE4B1 enzyme
  IC50: 4.5 nM

## COc1ccc(-c2cncc(C3COB(O)C3)c2)c2ccc(C(F)(F)F)nc12 (stereo not drawn) [Compound 10]
[1]; PBMC
  IC50: 0.9 nM
PDE4B1 enzyme
  IC50: 0.16 nM

## COc1ccc(-c2cc(C3COB(O)C3)cnn2)c2c1OC1(CCCC1)C2 (stereo not drawn) [Compound 5]
[1]; PBMC
  IC50: 1.56 nM

## CCCOc1cc(-c2cncc([C@@H]3COB(O)C3)c2)ccc1OC [Compound A, reference compound]
[2]; Homo sapiens, PBMC
  IC50: 0.61 nM
[1]; PBMC
  IC50: 1.16 nM
[3]; 0.03% applied on skin
  Ratio of spleen weight to body weight Mean: 0.96
  Total clinical score Mean: 8.33
  Erythema score Mean: 3.33
  Scale score Mean: 2.5
  Thickness score Mean: 2.5
[3]; [4]
  clinical score at the endpoint (statement): significantly reduce the clinical score
  effect on the ratio of spleen weight to body weight (statement): no significant effect
[3]; low and high dose groups of Compound 12-1 (0.01%, 0.1%), Compound A 0.03%
  increase of skin thickness (statement): no significant effect
PDE4B1 enzyme
  IC50: 0.3 nM

## COc1ccc(-c2cncc([C@@H]3COB(O)C3)n2)c2c1OC(C)(C)CC2 [Compound 12-1]
[2]; Homo sapiens, PBMC
  IC50: 0.018 nM
[1]; PBMC
  IC50: 0.055 nM
[3]; 0.01% applied on skin
  Ratio of spleen weight to body weight Mean: 0.64
  Total clinical score Mean: 9.5
  Erythema score Mean: 4
  Scale score Mean: 3.13
  Thickness score Mean: 2.38
[3]; 0.03% applied on skin
  Ratio of spleen weight to body weight Mean: 0.43
  Total clinical score Mean: 7.57
  Erythema score Mean: 3.86
  Scale score Mean: 2.14
  Thickness score Mean: 1.57
[3]; 0.1% applied on skin
  Ratio of spleen weight to body weight Mean: 0.31
  Total clinical score Mean: 6.75
  Erythema score Mean: 3.63
  Scale score Mean: 1.38
  Thickness score Mean: 1.75
